From patent publication US11926580B2, “Hydropersulfide precursors” (THE JOHNS HOPKINS UNIVERSITY, priority 2018, dated 2024) come the findings set out here.

Several values for one entry are separate records, joined by “and”; a condition that tells them apart may be missing. Equal entries are not always repeated.

The nature of this data set: Kinetics of RSSH generation by 1H NMR with NEM trapping. The format is physicochemical. The conditions noted are these: 10% D2O. Here is the method: FIGS. 3a and 3b provide graphs of (a) Stacked ^1H NMR spectra showing the decomposition of precursor 4d (1 mM) with NEM (20 mM) in 10% D2O, phosphate buffer (PB), pH 7.4 at 37° C. to produce RSS-NEM adduct 5a; Precursor 4d was introduced to a solution of NEM in PB at t=0 min and following equilibration and shimming, the first 1H NMR spectrum was obtained after 6 min.; and (b) The kinetics of decomposition of 4d (circles represent the —CH3 protons (Ha) of the precursor) and formation of 5a (squares represent the diasterotopic protons (Hb) of the succinimide ring of the two product diastereomers).
Next, ^1H NMR spectroscopy was used to monitor the kinetics of RSSH generation from 4d by trapping with NEM in 10% D2O, pH 7.4 buffer containing DMSO as an internal standard at 37° C. An increase in the peak intensity attributed to one of the diasterotopic protons of the succinimide ring of the two product diastereomers (Hb, δ2.99-2.91 ppm) was observed (FIG. 3a). The other diasterotopic proton (Hc, δ3.30-3.21 ppm) overlaps with N-ethylmaleamic acid (NEMA), a product derived from NEM hydrolysis. Similarly, the intensity of two methyl group protons of precursor 4d (δ1.44 and 1.41 ppm) decreased as four methyl group protons of the two diastereomers of 5a (Ha, δ1.40, 1.37 ppm and 1.40, 1.34 ppm) increased, supporting the clean conversion of 4d to 5a. The ^1H NMR peak assignments for 5a are consistent with the RSS-NEM adduct formed during S-methoxycarbonyl penicillamine disulfide (MCPD) decomposition (Scheme 1, eq. 3) in the presence of NEM.
All starting materials were of reagent grade and used without further purification. N-acetyl-D-penicillamine, N-ethylmaleimide, N-ethylmaleamic acid, and phenylcyanamide were purchased from Sigma-Aldrich and used without further purification. Thiourea and N-substituted thioureas were purchased from Alfa Aesar and Oakwood Chemicals. Deuterated solvents (Cambridge Isotope Laboratories) were used for NMR spectroscopic analyses. NMR spectra were obtained on a 400 MHz FT-NMR spectrometer. All chemical shifts are reported in parts per million (ppm) relative to residual CHCl3 (7.26 ppm for ^1H, 77.2 ppm for ^13C), residual H2O (4.79 ppm for ^1H), residual DMSO (2.50 ppm for ^1H, 39.5 for ^13C), or residual MeOH (3.31 ppm for ^1H, 49.2 ppm for ^13C). The kinetics of RSSH generation were measured using a Varian Inova 800 MHz spectrometer. UPLC-MS analysis was carried out with a Waters Acquity/Xevo-G2 UPLC-MS system equipped with an ACQUITY UPLC BEH C18 column (2.1 mm×50 mm, 1.7 μm). The mass signals for products of hydropersulfide trapping with NEM were obtained via deconvolution using MassLynx 4.1 software. The pH measurements were performed using a Fisher Scientific Accumet AB15 pH-meter. Analytical thin layer chromatography (TLC) was performed on Sigma-Aldrich silica gel on TLC A1 foils with fluorescent indicator F254 plates. Visualization was accomplished with UV light (254 nm) or staining with KMnO4. Flash column chromatography was performed using SiliaFlash P60 (230-400 mesh) silica gel. Melting points were recorded using MEL-TEMP® capillary melting point apparatus and are uncorrected.

For the compound `CC(=O)NC(C(=O)O)C(C)(C)SSC(=N)Nc1ccccc1.Cl` (stereo not shown) [Precursor 4d, ((1-acetamido-1-carboxy-2-methylpropan-2-yl)disulfaneyl)(phenylamino)methaniminium chloride], where the note is “4d 1 mM, NEM 20 mM, phosphate buffer pH 7.4, 37° C.”, the “k, single-exponential fit of precursor decomposition and 5a formation” value is 0.12 min⁻¹. The half-life at 1 mM (NEM, pH 7.4 buffer, 37° C., read-out: half-life of precursor) was 5.6 min. The “t1//2 (mm)” value (precursor 1 mM, NEM 20 mM, pH 7.4 phosphate buffer, 37° C.) was 5.6 ± 0.3 min. Also, where the note is “precursor 1 mM, NEM 20 mM, pH 7.4 phosphate buffer, 37° C., based upon % precursor consumed”, the “Hydropersulfide Yield (%) (RSS-NEM adduct)” value was 96% and 96 ± 1%.

The term half-life denotes how long it takes for the measured level to halve.
